Experimental data: patent publication US12630600B2 (MEDIMMUNE LIMITED, priority 2022, dated 2026)
Starred links: 1 amine or outer side, 2 acyl side, 3 side chain; linkers in the order of their positions; H or OH if unused. Non-standard residues stand in square brackets, D forms with d. Residues, ends and D or L forms follow the SMILES beside them. Groups on a side chain read outwards from the residue. *: point of attachment. C20 diacid = O=C(O)CCCCCCCCCCCCCCCCCCC(=O)*; C18 diacid = O=C(O)CCCCCCCCCCCCCCCCC(=O)*; γGlu = O=C(O)[C@H](CCC(=O)[*:2])N[*:1]; αMeF = C[C@](N)(Cc1ccccc1)C(=O)O; AEEA = NCCOCCOCC(=O)O; Aib = CC(C)(N)C(=O)O

Each molecule was assayed against T1, human GLP-1 receptor (hGLP-1R) (Homo sapiens, UniProt P43220) (assay: cAMP production (HTRF) in CHO cells expressing human GLP-1 receptor). Conditions: Table 8; % GLP-1R activity relative to GLP-1 / % GlucR activity relative to glucagon.
T1 construct: expressed in transfected cells; host or cells: CHO
Type: cell-based
Protocol: Cells were re-suspended in assay buffer at a batch-dependent optimized concentration (typically hGLP-1R cells at 1×10^5 cells/mL, hGCGR cells at 2×10^5 cells/mL).
Cells were added to the assay plate using a multidrop dispenser and incubated at room temperature for 30 minutes before measuring the cAMP level using a cAMP dynamic 2 homogeneous time resolved Fluorescence (HTRF) kit (Cisbio Bioassays #62AM4PEJ) following the two-step protocol as per manufacturer's recommendations. In brief, anti-cAMP cryptate (donor fluorophore) and cAMP-d2 (acceptor fluorophore) were made up separately by diluting each 1 in 20 in conjugate and lysis buffer provided in the kit. Anti-cAMP cryptate was added to all wells of the assay plate, followed by cAMP-d2 added to all wells except non-specific binding (NSB) wells (to which conjugate and lysis buffer was added).
Data was transformed to % Delta F as described in the manufacturer's guidelines and analyzed by 4-parameter logistic fit to determine EC50 values.

T1 sequence (P43220 24-463): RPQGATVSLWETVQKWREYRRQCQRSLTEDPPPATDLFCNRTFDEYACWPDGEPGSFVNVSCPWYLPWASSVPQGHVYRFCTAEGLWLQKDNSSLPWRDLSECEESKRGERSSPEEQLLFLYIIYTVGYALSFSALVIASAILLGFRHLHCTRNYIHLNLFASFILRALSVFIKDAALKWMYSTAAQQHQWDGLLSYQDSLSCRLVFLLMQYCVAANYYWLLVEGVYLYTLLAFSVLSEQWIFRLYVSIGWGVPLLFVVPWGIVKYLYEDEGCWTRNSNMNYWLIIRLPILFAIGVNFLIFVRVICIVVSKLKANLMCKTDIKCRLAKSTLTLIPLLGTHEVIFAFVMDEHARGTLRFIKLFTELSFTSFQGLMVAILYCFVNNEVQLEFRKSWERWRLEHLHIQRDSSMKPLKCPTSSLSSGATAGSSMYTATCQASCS

| Molecule | % Relative Potency Ratio |
| --- | --- |
| CC[C@H](C)[C@H](NC(=O)[C@H](Cc1c[nH]c2ccccc12)NC(=O)[C@H](CCCCNC(=O)COCCOCCNC(=O)COCCOCCNC(=O)CC[C@H](NC(=O)CC[C@H](NC(=O)CCCCCCCCCCCCCCCCCCC(=O)O)C(=O)O)C(=O)O)NC(=O)[C@@H](NC(=O)[C@H](Cc1ccccc1)NC(=O)[C@H](CC(=O)O)NC(=O)[C@H](CCC(N)=O)NC(=O)[C@H](C)NC(=O)[C@H](C)NC(=O)[C@H](CCCNC(=N)N)NC(=O)[C@H](CO)NC(=O)[C@H](CC(=O)O)NC(=O)[C@H](CC(C)C)NC(=O)[C@](C)(Cc1ccccc1)NC(=O)[C@H](CCCCN)NC(=O)[C@H](CO)NC(=O)[C@@H](NC(=O)[C@H](CC(=O)O)NC(=O)[C@H](CO)NC(=O)[C@@H](NC(=O)[C@](C)(Cc1ccccc1)NC(=O)[C@H](CO)NC(=O)CNC(=O)[C@H](Cc1c[nH]cn1)NC(=O)C(C)(C)NC(=O)[C@@H](N)Cc1c[nH]cn1)[C@@H](C)O)C(C)C)C(C)C)C(=O)N[C@@H](C)C(=O)N[C@@H](CC(N)=O)C(=O)N[C@H](C(N)=O)[C@@H](C)O [Peptide 377] (H-H[Aib]HGS[αMeF]TSDVSK[αMeF]LDSRAAQDFVK([AEEA-AEEA-γGlu-γGlu-C20 diacid])WIANT-NH2) | 2.5 |
| CC[C@H](C)[C@H](NC(=O)C(C)(C)NC(=O)[C@H](CCCCNC(=O)COCCOCCNC(=O)COCCOCCNC(=O)CC[C@H](NC(=O)CCCCCCCCCCCCCCCCC(=O)O)C(=O)O)NC(=O)[C@@H](NC(=O)[C@](C)(Cc1ccccc1)NC(=O)[C@H](CC(=O)O)NC(=O)[C@H](CCC(N)=O)NC(=O)[C@H](C)NC(=O)[C@H](C)NC(=O)[C@H](CCC(N)=O)NC(=O)[C@H](CO)NC(=O)[C@H](CC(=O)O)NC(=O)[C@H](CC(C)C)NC(=O)[C@](C)(Cc1ccccc1)NC(=O)[C@H](CCCCN)NC(=O)[C@H](CO)NC(=O)[C@@H](NC(=O)[C@H](CC(=O)O)NC(=O)[C@H](CO)NC(=O)[C@@H](NC(=O)[C@](C)(Cc1ccccc1)NC(=O)[C@H](CO)NC(=O)CNC(=O)[C@H](Cc1c[nH]cn1)NC(=O)C(C)(C)NC(=O)[C@@H](N)Cc1c[nH]cn1)[C@@H](C)O)C(C)C)C(C)C)C(=O)N[C@@H](C)C(=O)N[C@@H](CC(N)=O)C(=O)N[C@H](C(N)=O)[C@@H](C)O [Peptide 383] (H-H[Aib]HGS[αMeF]TSDVSK[αMeF]LDSQAAQD[αMeF]VK([AEEA-AEEA-γGlu-C18 diacid])[Aib]IANT-NH2; N-terminus assumed) | 2.3 |
| CC[C@H](C)[C@H](NC(=O)[C@H](Cc1c[nH]c2ccccc12)NC(=O)[C@H](CCCCNC(=O)COCCOCCNC(=O)COCCOCCNC(=O)CC[C@H](NC(=O)CCCCCCCCCCCCCCCCC(=O)O)C(=O)O)NC(=O)[C@@H](NC(=O)[C@H](Cc1ccccc1)NC(=O)[C@H](CC(=O)O)NC(=O)[C@H](CCC(N)=O)NC(=O)[C@H](C)NC(=O)C(C)(C)NC(=O)[C@H](CCCNC(=N)N)NC(=O)[C@H](CO)NC(=O)[C@H](CC(=O)O)NC(=O)[C@H](CC(C)C)NC(=O)[C@](C)(Cc1ccccc1)NC(=O)[C@H](CCCCN)NC(=O)[C@H](CO)NC(=O)[C@@H](NC(=O)[C@H](CC(=O)O)NC(=O)[C@H](CO)NC(=O)[C@@H](NC(=O)[C@](C)(Cc1ccccc1)NC(=O)[C@H](CO)NC(=O)CNC(=O)[C@H](Cc1c[nH]cn1)NC(=O)C(C)(C)NC(=O)[C@@H](N)Cc1c[nH]cn1)[C@@H](C)O)C(C)C)C(C)C)C(=O)N[C@@H](C)C(=O)N[C@@H](CC(N)=O)C(=O)N[C@H](C(N)=O)[C@@H](C)O [Peptide 365, H(Aib)HGS(αMePhe)TSDVSK(αMePhe)LDSR(Aib)AQDFVK(O2Oc-O2Oc-γE-C18diacid)24WIANT-amide] (H-H[Aib]HGS[αMeF]TSDVSK[αMeF]LDSR[Aib]AQDFVK([AEEA-AEEA-γGlu-C18 diacid])WIANT-NH2; N-terminus assumed) | 0.3 |
| CC[C@H](C)[C@H](NC(=O)[C@H](Cc1c[nH]c2ccccc12)NC(=O)[C@H](CCCCNC(=O)CC[C@H](NC(=O)CCCCCCCCCCCCCCCCC(=O)O)C(=O)O)NC(=O)[C@@H](NC(=O)[C@H](Cc1ccccc1)NC(=O)[C@H](CC(=O)O)NC(=O)[C@H](CCC(N)=O)NC(=O)[C@H](C)NC(=O)[C@H](C)NC(=O)[C@H](CCC(N)=O)NC(=O)[C@H](CO)NC(=O)[C@H](CC(=O)O)NC(=O)[C@H](CC(C)C)NC(=O)[C@](C)(Cc1ccccc1)NC(=O)[C@H](CCCCN)NC(=O)[C@H](CO)NC(=O)[C@@H](NC(=O)[C@H](CC(=O)O)NC(=O)[C@H](CO)NC(=O)[C@@H](NC(=O)[C@](C)(Cc1ccccc1)NC(=O)[C@H](CO)NC(=O)CNC(=O)[C@H](Cc1c[nH]cn1)NC(=O)C(C)(C)NC(=O)[C@@H](N)Cc1c[nH]cn1)[C@@H](C)O)C(C)C)C(C)C)C(=O)N[C@@H](C)C(=O)N[C@@H](CC(N)=O)C(=O)N[C@H](C(N)=O)[C@@H](C)O [Peptide 351] (H-H[Aib]HGS[αMeF]TSDVSK[αMeF]LDSQAAQDFVK([γGlu-C18 diacid])WIANT-NH2) | 0.7 |
| CC[C@H](C)[C@H](NC(=O)[C@H](Cc1c[nH]c2ccccc12)NC(=O)[C@H](CCCCNC(=O)COCCOCCNC(=O)COCCOCCNC(=O)CC[C@H](NC(=O)CC[C@H](NC(=O)CCCCCCCCCCCCCCCCC(=O)O)C(=O)O)C(=O)O)NC(=O)[C@@H](NC(=O)[C@H](Cc1ccccc1)NC(=O)[C@H](CC(=O)O)NC(=O)[C@H](CCC(N)=O)NC(=O)[C@H](C)NC(=O)[C@H](C)NC(=O)[C@H](CCCNC(=N)N)NC(=O)[C@H](CO)NC(=O)[C@H](CC(=O)O)NC(=O)[C@H](CC(C)C)NC(=O)[C@](C)(Cc1ccccc1)NC(=O)[C@H](CCCCN)NC(=O)[C@H](CO)NC(=O)[C@@H](NC(=O)[C@H](CC(=O)O)NC(=O)[C@H](CO)NC(=O)[C@@H](NC(=O)[C@](C)(Cc1ccccc1)NC(=O)[C@H](CO)NC(=O)CNC(=O)[C@H](Cc1c[nH]cn1)NC(=O)C(C)(C)NC(=O)[C@@H](N)Cc1c[nH]cn1)[C@@H](C)O)C(C)C)C(C)C)C(=O)N[C@@H](C)C(=O)N[C@@H](CC(N)=O)C(=O)N[C@H](C(=O)NCC(=O)NCC(N)=O)[C@@H](C)O [Peptide 364] (H-H[Aib]HGS[αMeF]TSDVSK[αMeF]LDSRAAQDFVK([AEEA-AEEA-γGlu-γGlu-C18 diacid])WIANTGG-NH2; N-terminus assumed) | 2.6 |

Same assay, conditions: Table 9; % GLP-1R activity relative to GLP-1 / % GlucR activity relative to glucagon

| Molecule | % Relative Potency Ratio |
| --- | --- |
| HSQGS(αMePhe)TSDK((PEG)2-(PEG)2-γE-γE-Palmitoyl)10SK(Dip)LDS(ß-dimethylArg)AAQD(αMePhe)VE(Aib)LANT-amide [Peptide 394] | 7.3 |
| HSQGS(αMePhe)TSDK((PEG)2-(PEG)2-γE-γE-Stearoyl)10SK(Dip)LDS(ß-dimethylArg)AAQD(αMePhe)VE(Aib)LANT-amide [Peptide 393] | 9.3 |
